{
  "source": "patent US7148215B2",
  "about": "“Chemical compounds” (Aventis Pharma S.A., priority 2001, dated 2006)",
  "note": "pIC50: −log10 of the molar value. Counter-ions that a name gives are not always drawn.",
  "data": [
    {"tested_on": "rat cerebellar granule neurons", "test": "Effect of JNK inhibitors on LY294002-induced cytotoxicity in cerebellar granule cells (MTT)", "assay_type": "cell-based", "details": "3–100 μM added to cells cultured in high potassium medium; FIG. 1", "protocol": "(§1) 7. Effect of JNK Inhibitors on Cytotoxicity in Cerebellar Granule Cells\n(§2) LY294002 is a reversible inhibitor of PI3K and activates JNKs with subsequent cell death. We have investigated the ability of the JNK inhibitors to protect against LY294002-induced cell death in a cerebellar granule cell preparation.\n(§3) Primary cerebellar cell cultures were prepared from 7-day-old Sprague-Dawley rats. Cerebella were carefully collected, dissected free of meninges and cut into 5–7 parts. Tissues were gently mechanically dissociated after digestion with VERSENE (5 minutes, 37° C.). The cells were seed onto 96-well plates pre-coated with poly-D-lysine (Becton-Dickinson) at a final density of 10^5 cells per well. Cultures were maintained at 37° C. in a humidified atmosphere with 5% CO2 and used after the 9th day of culture in DMEM medium complemented with 5% fetal calf serum, 5% horse serum and 30 mM potassium chloride in the presence of an anti-mitotic (10 μM cytosine arabinoside). The drugs were directly added to the culture at the indicated concentrations for 24 hours. Neuronal viability was assessed quantitatively by the colorimetric measurement of Mosmann or MTT assay (1983, J. Immunol. Methods, 65, 55–63). Each condition was tested in sextuplicate or triplicate and the mean values obtained analyzed statistically by one-way ANOVA, followed by Dunnett's multiple comparison test. […]", "values": [
      {"smiles": "O=c1cc(N2CCOCC2)oc2c(-c3ccccc3)cccc12", "note": "[LY294002, reference compound]", "neurotoxic effect on cerebellar granule neurons": "induced neuronal death"}
    ]},
    {"tested_on": "rat cerebellar granule neurons", "test": "Effect of JNK inhibitors on LY294002-induced cytotoxicity in cerebellar granule cells (MTT)", "assay_type": "cell-based", "details": "Neuron; LY294002 30 μM; rat cerebellar granule cells after 9 days of culture; 24 hours; MTT; FIG. 2; read-out: protection against LY294002-induced toxicity, IC50", "protocol": "as §1, §2, §3", "values": [
      {"smiles": "N#Cc1c(C(N)=O)c2n(c1C1CC1)CCN(C(=O)Nc1ccc(F)cc1)C2", "note": "[Example 9(a), 7-Cyano-6-cyclopropyl-3,4-dihydro-1H-pyrrolo[1,2-a]pyrazine-2,8-dicarboxylic acid 8-amide 2-[(4-fluorophenyl)amide]]", "pIC50": 5.15}
    ]},
    {"tested_on": "not given", "test": "not given", "details": "not given", "values": [
      {"smiles": "COc1ccc(NC(=S)N2CCn3c(c(C(N)=O)c(Cl)c3-c3ccccc3)C2)cc1", "melting point": "176 to 178 °C"},
      {"smiles": "NC(=O)c1c(Cl)c(C2CC2)n2c1CNCC2", "note": "(as salt: trifluoroacetic acid salt)", "melting point": "237 to 239 °C"},
      {"smiles": "N#Cc1c(C(N)=O)c2n(c1C1CCOCC1)CCN(C(=O)Nc1ccc3ncccc3c1)C2", "melting point": "296 to 298 °C (dec.)"},
      {"smiles": "N#Cc1c(C(N)=O)c2n(c1C1CC1)CCN(C(=O)Nc1ccc(C(=O)NCCN3CCOCC3)cc1)C2", "melting point": "197 to 199 °C"},
      {"smiles": "N#Cc1c(C(N)=O)c2n(c1C1CC1)CCN(C(=O)Nc1ccc(C(F)(F)F)nc1)C2", "melting point": "149 to 153 °C"},
      {"smiles": "COc1ccc(NC(=O)N2CCn3c(c(C(N)=O)c(Cl)c3-c3ccccc3)C2)cc1", "melting point": "246 to 248 °C"},
      {"smiles": "N#Cc1c(C(N)=O)c2n(c1-c1ccccc1)CCN(C(=O)Nc1cccc(F)c1)C2", "melting point": "219 to 220 °C"},
      {"smiles": "N#Cc1c(C(N)=O)c2n(c1C1CC1)CCN(C(=O)Nc1ccc(F)cc1)C2", "note": "[Example 9(a), 7-Cyano-6-cyclopropyl-3,4-dihydro-1H-pyrrolo[1,2-a]pyrazine-2,8-dicarboxylic acid 8-amide 2-[(4-fluorophenyl)amide]]", "melting point": "232 to 234 °C"},
      {"smiles": "Cc1ccc(-c2c(Cl)c(C(N)=O)c3n2CCN(C(=O)Nc2ccc4ncccc4c2)C3)cn1", "melting point": "221 to 222 °C"},
      {"smiles": "NC(=O)c1c(Cl)c(-c2ccccc2)n2c1CN(C(=O)Nc1cccnc1)CC2", "melting point": "261 to 263 °C"},
      {"smiles": "NC(=O)c1c(Cl)c(-c2ccccc2)n2c1CN(C(=O)Cc1ccccc1O)CC2", "melting point": "176 to 180 °C"},
      {"smiles": "NC(=O)c1c(Cl)c(-c2cccnc2)n2c1CN(S(=O)(=O)c1ccc(C(F)(F)F)cc1)CC2", "melting point": "205 to 206 °C"},
      {"smiles": "N#Cc1ccc(NC(=O)N2CCn3c(c(C(N)=O)c(C#N)c3-c3cccnc3)C2)cc1", "melting point": "291 to 296 °C"},
      {"smiles": "N#Cc1c(C(N)=O)c2n(c1-c1cccnc1)CCN(C(=O)Nc1ccc(F)cc1)C2", "melting point": "275 to 279 °C"},
      {"smiles": "NC(=O)c1c(Cl)c(-c2ccccc2)n2c1CN(S(=O)(=O)Nc1ccccc1)CC2", "melting point": "207 to 208 °C"},
      {"smiles": "N#Cc1c(C(N)=O)c2n(c1-c1ccccc1)CCN(C(=O)Nc1ccc(C(=O)O)cc1)C2", "melting point": "286 to 288 °C"},
      {"smiles": "NC(=O)c1c(Cl)c(-c2ccccc2)n2c1CN(C(=O)CCC1CCCCC1)CC2", "melting point": "181 to 182 °C"},
      {"smiles": "CS(=O)(=O)N1CCC(c2c(C#N)c(C(N)=O)c3n2CCN(C(=O)Nc2ccc(F)cc2)C3)CC1", "melting point": "177 to 180 °C"},
      {"smiles": "Cc1c(Cl)c(C(N)=O)c2n1CCN(C(=O)Nc1cccc(F)c1)C2", "melting point": "229 to 231 °C"},
      {"smiles": "COc1ccc(N/C(=N\\C#N)N2CCn3c(c(C(N)=O)c(Cl)c3-c3ccccc3)C2)cc1", "melting point": "170 °C"},
      {"smiles": "NC(=O)c1c(Cl)c(-c2ccccc2)n2c1CN(S(=O)(=O)c1cccs1)CC2", "melting point": "240 to 242 °C"},
      {"smiles": "NC(=O)c1c(Cl)c(-c2ccccc2)n2c1CN(C(=O)Oc1ccccc1)CC2", "melting point": "196 to 198 °C"},
      {"smiles": "CS(=O)(=O)N1CCC(c2c(C#N)c(C(N)=O)c3n2CCN(C(=O)Nc2ccc(C#N)cc2)C3)CC1", "melting point": "218 to 221 °C"},
      {"smiles": "N#Cc1c(C(N)=O)c2n(c1C(F)(F)F)CCN(C(=O)Nc1ccc(C(F)(F)F)cc1)C2", "melting point": "243 to 246 °C (dec.)"},
      {"smiles": "N#Cc1c(C(N)=O)c2n(c1C1CCOCC1)CCN(C(=O)Nc1cccc(C(F)(F)F)c1)C2", "melting point": "200 to 202 °C (dec.)"},
      {"smiles": "N#Cc1ccc(NC(=O)N2CCn3c(c(C(N)=O)c(Cl)c3C3CC3)C2)cc1", "melting point": "196 to 198 °C"},
      {"smiles": "N#Cc1c(C(N)=O)c2n(c1C1CC1)CCN(S(=O)(=O)c1ccc(C(F)(F)F)cc1)C2", "melting point": "253 to 256 °C"},
      {"smiles": "Cc1ccc(-c2c(Cl)c(C(N)=O)c3n2CCN(C(=O)Nc2ccc(F)cc2)C3)cn1", "melting point": "235 to 238 °C (dec.)"},
      {"smiles": "NC(=O)c1c(Cl)cn2c1CN(S(=O)(=O)c1ccc(-c3ccccn3)s1)CC2", "melting point": "213 to 214 °C"},
      {"smiles": "NC(=O)c1c(Cl)cn2c1CN(C(=O)Nc1ccc(-c3ccccn3)s1)CC2", "melting point": "249 to 250 °C"},
      {"smiles": "COc1ccc(NC(=O)N2CCn3c(-c4ccccc4)cc(C(N)=O)c3C2)cc1", "melting point": "170 to 173 °C"},
      {"smiles": "NC(=O)c1c(Cl)c(C2CC2)n2c1CN(C(=O)Nc1ccc(F)cc1)CC2", "note": "[Example 16(a)]", "melting point": "230 to 231 °C"},
      {"smiles": "NC(=O)c1c(Cl)c(C2CC2)n2c1CN(C(=O)Nc1ccc(F)cc1)CC2", "note": "[Example 3]", "melting point": "266 to 267 °C"},
      {"smiles": "NC(=O)c1c(Cl)cn2c1CN(C(=O)Nc1ccc(F)cc1)CC2", "melting point": "229 to 231 °C"}
    ]}
  ]
}
